Experimental data: patent US10314809B2, “Application of derivative of clostridium ghonii” (SHANDONG XINCHUANG BIOTECHNOLOGY CO., LTD., priority 2014, dated 2019)

Tested on: non-small cell lung carcinoma A549 cells
Assay: Example 2: in-vivo test of spores combined with chemotherapy medicines in A549 tumor-bearing nude mice
Set-up: species or system Balb/c-nu/nu nude mice
Procedure: The non-small cell lung carcinoma A549 cells were injected into the subcutaneous positions at femoral lateral parts of right backs of female Balb/c-nu/nu nude mice (5 weeks old, 20 g) by subcutaneous injection. The in-vivo test was performed when the tumor volume was 300 mm^3.
Control group: n=15, and 0.2 ml of PBS buffer was intravenously injected to the tails;
Docetaxel group: n=15, Docetaxel was intravenously injected to the tails on the 4th day and 11th day, the dose was 20 mg/(kg·body weight), and the application dose of Docetaxel was the optimal application dose.
MW-DCG-HNCv-18 spore group: n=15, spores were intravenously injected to the tails, and the dose was 3×10^8/(kg·body weight).
(§1) MW-DCG-HNCv-18 spore+Cetuximab group: n=15, MW-DCG-HNCv-18 spores were intravenously injected to the tails on the first day, and the dose was 3×10^8/(kg·body weight); Cetuximab was intravenously injected to the tails on the 4th day and 11th day, the dose was 70 mg/(kg·body weight), and the application dose of Cetuximab was the optimal application dose.
as §1, with “weight); Adriacin” for “weight); Cetuximab”, “was 10” for “was 70”, “of Adriacin” for “of Cetuximab”
MW-DCG-HNCv-18 spore+Docetaxel group: n=15, MW-DCG-HNCv-18 spores were intravenously injected to the tails on the first day, and the dose was 3×10^8/(kg·body weight); Docetaxel was intravenously injected to the tails on the 4th day and 11th day, and the dose was 20 mg/(kg·body weight).
C. novyi-NT spore+Docetaxel group: n=15, C. novyi-NT spores were intravenously injected to the tails on the first day, and the dose was 3×10^8/(kg·body weight);
Docetaxel was intravenously injected to the tails on the 4th day and 11th day, and the dose was 20 mg/(kg·body weight).
The major diameter (a) and transverse diameter (b) of the transplanted tumors of the nude mice were measured with a vernier caliper, 3 to 4 times a week, the tumor volume of each group was calculated, and the anti-tumor effects of the strains were observed dynamically. At the same time, the body weight, feeding, drinking, mental state, behavior, fur color, excretion and death situations of the tumor-bearing mice were observed and recorded.
The tumor volume (V=½×a×b^2) was calculated according to the measured major diameter and transverse diameter data of the tumors, the curve was drawn and the tumors were observed dynamically. […]
The overall survival time of the tumor-bearing mice: the nude mice in each group after processing were fed until natural death, and the survival time was calculated.

[1] = spores 3×10^8/(kg·body weight) i.v. day 1, drug i.v. 4th and 11th day (Docetaxel 20, Cetuximab 70, Adriacin 10 mg/kg)

Structure (SMILES): CC(=O)O[C@@]12CO[C@@H]1C[C@H](O)[C@@]1(C)C(=O)[C@H](O)C3=C(C)[C@@H](OC(=O)[C@H](O)[C@@H](NC(=O)OC(C)(C)C)c4ccccc4)C[C@@](O)([C@@H](OC(=O)c4ccccc4)[C@H]21)C3(C)C [Docetaxel]
- Cure rate (animals with tumor completely removed/total, spores 3×10^8/kg day 1, drug i.v. 4th and 11th day): 0%
- Necrosis rate [1]: 22.2%
- Tumor inhibition rate [1]: 55.9%
- mean survival days (spores 3×10^8/kg day 1, drug i.v. 4th and 11th day, fed until natural death): 35.5 days
